Results as given in publication PMC12436592 (Nature Communications, 2025).
Several values for one entry are separate records, joined by “and”; a condition that tells them apart may be missing. Identical values can stand only once. Each block holds one compound with its values, some of them ahead of it.

Molecular target: T1, hP2X7R (Homo sapiens, UniProt Q99572)
T1 sequence (Q99572 1-595): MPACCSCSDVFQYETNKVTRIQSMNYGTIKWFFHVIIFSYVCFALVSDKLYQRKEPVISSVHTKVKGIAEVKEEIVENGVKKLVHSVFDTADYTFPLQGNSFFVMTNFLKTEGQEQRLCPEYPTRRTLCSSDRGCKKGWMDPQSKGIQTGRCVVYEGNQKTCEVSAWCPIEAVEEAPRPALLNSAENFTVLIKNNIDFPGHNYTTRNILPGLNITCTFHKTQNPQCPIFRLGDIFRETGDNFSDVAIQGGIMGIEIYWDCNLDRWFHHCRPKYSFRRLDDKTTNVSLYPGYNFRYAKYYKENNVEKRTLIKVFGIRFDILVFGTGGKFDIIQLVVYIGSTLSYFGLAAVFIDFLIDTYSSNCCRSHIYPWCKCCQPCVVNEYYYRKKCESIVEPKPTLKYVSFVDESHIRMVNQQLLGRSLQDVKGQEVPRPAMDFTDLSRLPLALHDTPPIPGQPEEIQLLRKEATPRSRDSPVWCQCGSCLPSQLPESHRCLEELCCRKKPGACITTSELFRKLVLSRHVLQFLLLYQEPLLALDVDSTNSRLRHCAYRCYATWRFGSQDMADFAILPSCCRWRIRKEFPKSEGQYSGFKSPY
Experiment: TEVC determination of antagonist binding kinetics in Xenopus oocytes
Type: cell-based
Design: expressed in transfected cells; host or cells: Xenopus laevis oocytes injected with capped cRNA (modified pUC19 vector, T7)
Settings: for IC50: Supplementary Fig. 10D, read-out: IC50 from binding equilibrium (plateau) dose inhibition curve; for off-rate of binding to the hP2X7R: graphically determined (y-intercept); for off-rate, Response [%]: single replicates
Experimental: Xenopus laevis frogs were from Nasco International (Fort Atkinson, WI) and kept at the Core Facility Animal Models (CAM) of the Biomedical Center (BMC) of LMU Munich, Germany (Az:4.3.2–5682/LMU/BMC/CAM) in accordance with the EU Animal Welfare Act. Ovaries were surgically extracted (ROB_54-011-AZ 2532.Vet_02-23-166), treated with collagenase (Nordmark, Uetersen, Germany 1.0–1.5 mg/mL, ≥2 at RT) and defolliculated (15-min treatment in Ca^2+-free oocyte Ringer (90 mM NaCl, 1 mM KCl, 2 mM MgCl2, 5 mM HEPES), respectively. 50 nL of cRNA (0.5 µg/µL) were injected using a Nanoject II injector (Science Products, Drummond) and oocytes were kept in ND96 (96 mM NaCl, 2 mM KCl, 1 mM MgCl2, 1 mM CaCl2, 5 mM HEPES, pH 7.4–7.5). The plasmid containing the hP2X7R was linearized with NotI-HF (NEB) and purified with the MinElute Reaction Cleanup Kit (Qiagen, Hilden, Germany). Capped cRNA was synthesized using the mMESSAGE mMACHINE™ T7 Transcription Kit (ThermoFisher Scientific, Schwerte, Germany) and dissolved in nuclease-free water (500 ng/µL). Injected oocytes were allowed to express for at least 36 hours.
Two-electrode voltage clamp recordings were performed at room temperature and a holding potential of −70 mV using a Turbo Tec-05X Amplifier (npi electronic, Tamm, Germany), a magnetic valve system, and CellWorks E 5.5.1 software. Currents were filtered at 1 kHz and digitized at 200 Hz. Electrode resistances were below 1.2 MΩ. […] Recordings were performed in ND96.
After obtaining reproducible agonist-evoked responses, solutions were switched to antagonist-containing recording solutions with and without ATP to determine association rates. Responses following antagonist application were normalized to the preceding, stabilized agonist responses. Dissociation was determined in 1- or 2 min intervals when currents were reduced to <10%. Association curves were fit to the data by the equation % Response = (100-Plateau)*exp(-kobs*Time) + Plateau, where Plateau indicates the response at equilibrium and kobs the experimentally determined on-rate. All data were analyzed using Prism software (GraphPad Software, Inc., Version 8.3.0, San Diego, CA) and are presented as means ± SD from at least three oocytes. […] The final concentration of DMSO in the recording solution was ≤1%.
Supplementary Fig. 10: Kinetics of ligands binding to the hP2X7R measured by TEVC. (A) […]
All data represented as mean ± S.D. with n=3, 7, 7, and 7 f or the experiments performed at 3 nM, 10 nM, 30 nM, and 100 nM […]
(B) Representative current traces for t he activation
(C) On- and off-r at e constants and Ki
Observed on- r at es kobs were determined by fitting the data (Fig. 4H, Supplementary Fig. 10A) to the function: % response = (100- Plateau)*exp(-kobs*time)+Plateau and plotted against the antagonist concentrations to obtain koff according to k obs=kon*F+koff. Assuming a (simplified) 1:1 binding model, of f-r at e constant koff and Ki values were estimated using the previous formulas as well as Ki=koff/kon. […]
determined by Ca2+ imaging (18 nM, Fig. 3B ) and the binding equilibrium reached at each […]
values of UB-MBX-46 c annot reflect an accurate value due to the nearly negligible dissociation on the timescale of the experiment. If k off was estimated based on the IC50 value (IC50 = koff/kon panel D), a more accurate koff value can be obtained. Numbers in square brackets are 95% Confidence Intervals. *values obtained from an extrapolated dose inhibition curve from D . (D) The plateau values, representing the binding equilibrium, were used to generate dose inhibition

Ki (Ki=koff/kon, 1:1 binding model): 28 nM
IC50 (TEVC): 15 nM
off-rate of binding to the hP2X7R (TEVC): 0.29 min⁻¹
Response %, plateau (binding equilibrium) (log [Antagonist] M -7): 5.6% and 1.4% and 0% and 2.8%
Response %, plateau (binding equilibrium) (log [Antagonist] M -8): 55.2% and 63.2% and 73.1%
off-rate, Response [%] (time 2 min): 6.1% and 5.1% and 4% and 3.2% and 6.5%
SMILES: O=C(NNc1ccccc1Cl)C12CC3CC(CC(C3)C1)C2 [UB-ALT-P30, reference compound]
off-rate, Response [%] (time 4 min): 18.2% and 19.2% and 16% and 12.9% and 19.4%
off-rate, Response [%] (time 6 min): 33.3% and 37.2% and 28% and 29% and 32.3%
off-rate, Response [%] (time 8 min): 48.5% and 57.7% and 44% and 38.7% and 48.4%
off-rate, Response [%] (time 10 min): 63.6% and 73.1% and 60% and 54.8% and 64.5%

Response [%], on-rate to hP2X7R (3 nM, 8 min): 81.7% and 82.6% and 84.4%
Response [%], on-rate to hP2X7R (3 nM, 10 min): 79.7% and 80.2% and 82.1%
Response [%], on-rate to hP2X7R (3 nM, 12 min): 77.1% and 77.3% and 80.4%
Response [%], on-rate to hP2X7R (3 nM, 14 min): 75.7% and 75% and 78.9%
Response [%], on-rate to hP2X7R (3 nM, 16 min): 74.3% and 73.3% and 77.9%
Response [%], on-rate to hP2X7R (3 nM, 18 min): 72.4% and 72% and 76.9%
Response [%], on-rate to hP2X7R (3 nM, 20 min): 71.3% and 75.5%
Response [%], on-rate to hP2X7R (3 nM, 22 min): 71.1% and 69.9% and 74.3%
Response [%], on-rate to hP2X7R (3 nM, 24 min): 70.1% and 68.7% and 73%
Response [%], on-rate to hP2X7R (3 nM, 26 min): 68.4% and 67% and 71.9%
Response [%], on-rate to hP2X7R (3 nM, 28 min): 67.5%
Response [%], on-rate to hP2X7R (10 nM, 8 min): 46.2% and 42.1% and 45.9% and 43.2%
Response [%], on-rate to hP2X7R (10 nM, 10 min): 38.5% and 32.7% and 36.4% and 35.2%
Response [%], on-rate to hP2X7R (10 nM, 12 min): 32.3% and 28.4% and 29.5% and 27.9%
Response [%], on-rate to hP2X7R (10 nM, 14 min): 27.8% and 23.8% and 23.7% and 22%
Response [%], on-rate to hP2X7R (10 nM, 16 min): 24.1% and 19.5% and 19% and 18.8%
Response [%], on-rate to hP2X7R (10 nM, 18 min): 21.6% and 17% and 14.3% and 15.8%
Response [%], on-rate to hP2X7R (10 nM, 20 min): 17.8% and 14.3% and 12.1% and 13.7%
Response [%], on-rate to hP2X7R (10 nM, 22 min): 14.9% and 12.5% and 10.6% and 11.9%
Response [%], on-rate to hP2X7R (10 nM, 24 min): 12.6% and 11.2% and 8.8% and 10.6%
Response [%], on-rate to hP2X7R (10 nM, 26 min): 11% and 9.8% and 7.8% and 9.3%
Response [%], on-rate to hP2X7R (30 nM, 10 min): 13.8% and 4.3% and 7.1% and 7.5%
Response [%], on-rate to hP2X7R (30 nM, 12 min): 8.8% and 2.5% and 5.3% and 5.2%
Response [%], on-rate to hP2X7R (30 nM, 14 min): 6% and 1.6% and 3.8% and 3.4%
Response [%], on-rate to hP2X7R (30 nM, 16 min): 4.7% and 0.9% and 2.8% and 2.9%
Response [%], on-rate to hP2X7R (30 nM, 18 min): 3% and 0.6% and 2.3% and 2%
Response [%], on-rate to hP2X7R (30 nM, 20 min): 1.7% and 0.4% and 2%
Response [%], on-rate to hP2X7R (30 nM, 22 min): 1.2% and 0.4% and 1.8%
Response [%], on-rate to hP2X7R (100 nM, 8 min): 0.4% and 0.9% and 0.6% and 1.9%
antagonism of the hP2X7R (TEVC, 300 µM ATP, 100 nM antagonist): strong antagonism
IC50 (TEVC): 3.8 nM
off-rate of binding to the hP2X7R (TEVC): 0.07 min⁻¹
Response %, plateau (binding equilibrium) (log [Antagonist] M -7.5): 0.2898% and 1.031% and 2.642% and 2.211%
Response %, plateau (binding equilibrium) (log [Antagonist] M -8.5): 67.01% and 62.07% and 63.87%
off-rate, Response [%] (time 1 min): 2.6% and 0.9% and 1.5%
off-rate, Response [%] (time 2 min): 2.8% and 1.3% and 1.5%
off-rate, Response [%] (time 3 min): 3.3% and 1.5% (2×)
off-rate, Response [%] (time 4 min): 3.1% and 1.7% and 1.5%
off-rate, Response [%] (time 5 min): 2.6% and 1.7% and 1.5%
off-rate, Response [%] (time 6 min): 2.6% and 2% and 1.5%
off-rate, Response [%] (time 7 min): 2.9% and 2.3% and 1.5%
off-rate, Response [%] (time 8 min): 2.9% and 2.3% and 1.5%
off-rate, Response [%] (time 9 min): 2.9% and 2.5% and 1.5%
off-rate, Response [%] (time 10 min): 3.3% and 2.5% and 1.5%
antagonist dissociation from the hP2X7R (within 10 min of wash-out): virtually irreversible binding
SMILES: CC12CC3CC1(C)C1(C)CC3(C(=O)NNc3ccccc3Cl)CC21C [UB-MBX-46]
Response %, plateau (binding equilibrium) (log [Antagonist] M -7): 0.2985% and 1.206% and 0.0001019% and 1.64%
Response %, plateau (binding equilibrium) (log [Antagonist] M -8): 7.079% and 5.855% and 4.45E-19% and 3.075%
